{"source": "PubChem BioAssay AID489017", "about": "(The Scripps Research Institute Molecular Screening Center, 2010)", "test_in_all_cases": "receptor, enzyme and CYP inhibition profiling – biochemical, Ricerca HitProfilingScreen, CYP450, selectivity assay for S1P4 antagonist project, profiling panel (AID 489017)", "key": {"[1]": {"target": "Cytochrome P450 1A2 (Homo sapiens) (UniProt P05177)", "conditions": "Ricerca receptor/enzyme binding panel plus CYP450; CYP450 1A2; at 10 µM; stronger effect = higher value"}, "[2]": {"target": "Muscarinic acetylcholine receptor M2 (Homo sapiens) (UniProt P08172)", "sequence (P08172 whole entry, looked up)": "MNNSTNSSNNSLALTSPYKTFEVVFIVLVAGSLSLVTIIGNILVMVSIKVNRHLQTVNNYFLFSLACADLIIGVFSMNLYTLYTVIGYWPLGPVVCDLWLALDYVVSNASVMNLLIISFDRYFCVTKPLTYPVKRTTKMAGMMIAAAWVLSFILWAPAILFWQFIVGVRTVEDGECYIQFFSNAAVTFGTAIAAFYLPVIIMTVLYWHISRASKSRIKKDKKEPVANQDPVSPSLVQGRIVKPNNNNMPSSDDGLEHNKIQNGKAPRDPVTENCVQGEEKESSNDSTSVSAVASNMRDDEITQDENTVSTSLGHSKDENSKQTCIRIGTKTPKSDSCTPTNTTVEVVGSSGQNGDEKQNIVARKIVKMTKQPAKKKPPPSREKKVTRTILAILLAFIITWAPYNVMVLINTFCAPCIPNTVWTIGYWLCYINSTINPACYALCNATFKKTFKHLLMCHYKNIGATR", "conditions": "Ricerca receptor/enzyme binding panel plus CYP450, at 10 µM, stronger effect = higher value"}, "[3]": {"target": "Alpha-2A adrenergic receptor (Homo sapiens) (UniProt P08913)", "sequence (P08913 whole entry, looked up)": "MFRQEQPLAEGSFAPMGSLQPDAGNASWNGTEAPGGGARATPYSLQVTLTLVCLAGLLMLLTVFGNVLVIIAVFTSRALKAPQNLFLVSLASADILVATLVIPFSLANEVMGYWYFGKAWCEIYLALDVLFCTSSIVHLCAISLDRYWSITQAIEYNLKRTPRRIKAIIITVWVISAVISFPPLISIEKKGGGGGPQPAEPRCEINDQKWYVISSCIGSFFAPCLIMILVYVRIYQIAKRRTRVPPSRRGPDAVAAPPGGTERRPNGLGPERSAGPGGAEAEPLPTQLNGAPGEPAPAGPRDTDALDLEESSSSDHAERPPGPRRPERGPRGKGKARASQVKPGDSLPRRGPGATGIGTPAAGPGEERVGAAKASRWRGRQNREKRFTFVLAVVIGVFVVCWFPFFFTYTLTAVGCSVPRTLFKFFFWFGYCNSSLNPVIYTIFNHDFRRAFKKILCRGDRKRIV", "conditions": "Ricerca receptor/enzyme binding panel plus CYP450; Adrenergic alpha2A; at 10 µM; stronger effect = higher value"}, "Dopamine D2S": {"system": "Dopamine D2S", "conditions": "Ricerca receptor/enzyme binding panel plus CYP450, at 10 µM, stronger effect = higher value"}, "Adrenergic alpha1A": {"system": "Adrenergic alpha1A", "conditions": "Ricerca receptor/enzyme binding panel plus CYP450, at 10 µM, stronger effect = higher value"}, "CYP450 2C19": {"system": "CYP450 2C19", "conditions": "Ricerca receptor/enzyme binding panel plus CYP450, at 10 µM, stronger effect = higher value"}, "[4]": {"system": "Norepinephrine Transporter (NET)", "conditions": "Ricerca receptor/enzyme binding panel plus CYP450, at 10 µM, stronger effect = higher value"}, "Nicotinic Acetylcholine": {"system": "Nicotinic Acetylcholine", "conditions": "Ricerca receptor/enzyme binding panel plus CYP450, at 10 µM, stronger effect = higher value"}, "Adenosine A2A": {"system": "Adenosine A2A", "conditions": "Ricerca receptor/enzyme binding panel plus CYP450, at 10 µM, stronger effect = higher value"}, "Opiate mu (OP3, MOP)": {"system": "Opiate mu (OP3, MOP)", "conditions": "Ricerca receptor/enzyme binding panel plus CYP450, at 10 µM, stronger effect = higher value"}, "[5]": {"target": "Cytochrome P450 2C9 (Homo sapiens) (UniProt P11712)", "sequence (P11712 whole entry, looked up)": "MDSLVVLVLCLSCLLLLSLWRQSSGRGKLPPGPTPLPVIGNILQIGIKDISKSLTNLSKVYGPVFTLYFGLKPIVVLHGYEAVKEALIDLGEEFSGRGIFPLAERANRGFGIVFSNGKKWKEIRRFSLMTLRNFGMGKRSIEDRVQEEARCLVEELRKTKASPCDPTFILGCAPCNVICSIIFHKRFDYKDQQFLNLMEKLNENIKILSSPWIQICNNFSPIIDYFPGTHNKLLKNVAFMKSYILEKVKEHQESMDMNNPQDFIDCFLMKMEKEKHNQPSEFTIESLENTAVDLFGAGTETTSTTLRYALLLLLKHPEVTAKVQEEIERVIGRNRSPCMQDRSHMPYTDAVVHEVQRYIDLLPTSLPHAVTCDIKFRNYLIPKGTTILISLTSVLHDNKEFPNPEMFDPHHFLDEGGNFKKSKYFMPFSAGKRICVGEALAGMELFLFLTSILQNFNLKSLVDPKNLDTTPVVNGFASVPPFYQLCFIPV", "conditions": "Ricerca receptor/enzyme binding panel plus CYP450; CYP450 2C9; at 10 µM; stronger effect = higher value"}, "[6]": {"target": "Beta-2 adrenergic receptor (Homo sapiens) (UniProt P07550)", "sequence (P07550 whole entry, looked up)": "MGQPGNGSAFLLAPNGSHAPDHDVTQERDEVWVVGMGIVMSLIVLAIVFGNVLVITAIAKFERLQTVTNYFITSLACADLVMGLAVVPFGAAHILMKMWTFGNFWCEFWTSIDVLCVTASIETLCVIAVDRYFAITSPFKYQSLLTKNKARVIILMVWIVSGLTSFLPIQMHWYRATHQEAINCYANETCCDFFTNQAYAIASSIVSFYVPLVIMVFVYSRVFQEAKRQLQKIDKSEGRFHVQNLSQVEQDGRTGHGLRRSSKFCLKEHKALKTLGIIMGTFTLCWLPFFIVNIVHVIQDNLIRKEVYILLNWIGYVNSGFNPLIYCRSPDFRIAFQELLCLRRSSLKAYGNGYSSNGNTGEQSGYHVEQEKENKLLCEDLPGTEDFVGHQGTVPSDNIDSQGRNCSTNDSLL", "conditions": "Ricerca receptor/enzyme binding panel plus CYP450; Adrenergic beta2; at 10 µM; stronger effect = higher value"}, "Adrenergic alpha1B": {"system": "Adrenergic alpha1B", "conditions": "Ricerca receptor/enzyme binding panel plus CYP450, at 10 µM, stronger effect = higher value"}, "[7]": {"target": "Muscarinic acetylcholine receptor M3 (Homo sapiens) (UniProt P20309)", "sequence (P20309 whole entry, looked up)": "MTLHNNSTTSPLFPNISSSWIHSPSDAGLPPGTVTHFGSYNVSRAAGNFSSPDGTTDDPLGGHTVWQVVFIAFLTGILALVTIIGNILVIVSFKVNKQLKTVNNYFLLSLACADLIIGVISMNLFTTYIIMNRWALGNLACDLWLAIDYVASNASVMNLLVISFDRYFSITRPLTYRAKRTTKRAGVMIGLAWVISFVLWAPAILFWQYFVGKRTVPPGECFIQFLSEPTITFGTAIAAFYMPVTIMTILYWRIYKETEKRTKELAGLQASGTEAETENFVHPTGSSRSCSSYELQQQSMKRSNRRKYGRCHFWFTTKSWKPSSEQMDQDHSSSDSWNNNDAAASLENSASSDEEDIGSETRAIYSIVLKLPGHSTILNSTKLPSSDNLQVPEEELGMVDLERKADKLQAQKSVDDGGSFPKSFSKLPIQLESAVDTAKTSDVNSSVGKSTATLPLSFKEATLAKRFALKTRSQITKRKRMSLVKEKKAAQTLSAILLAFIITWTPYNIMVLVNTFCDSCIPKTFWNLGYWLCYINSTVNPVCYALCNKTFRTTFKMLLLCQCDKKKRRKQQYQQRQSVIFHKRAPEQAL", "conditions": "Ricerca receptor/enzyme binding panel plus CYP450, at 10 µM, stronger effect = higher value"}, "Glutamate NMDA": {"system": "Glutamate NMDA", "conditions": "Ricerca receptor/enzyme binding panel plus CYP450, Phencyclidine site, at 10 µM, stronger effect = higher value"}, "[8]": {"target": "Voltage-gated inwardly rectifying potassium channel KCNH2 (Homo sapiens) (UniProt Q12809)", "sequence (Q12809 whole entry, looked up)": "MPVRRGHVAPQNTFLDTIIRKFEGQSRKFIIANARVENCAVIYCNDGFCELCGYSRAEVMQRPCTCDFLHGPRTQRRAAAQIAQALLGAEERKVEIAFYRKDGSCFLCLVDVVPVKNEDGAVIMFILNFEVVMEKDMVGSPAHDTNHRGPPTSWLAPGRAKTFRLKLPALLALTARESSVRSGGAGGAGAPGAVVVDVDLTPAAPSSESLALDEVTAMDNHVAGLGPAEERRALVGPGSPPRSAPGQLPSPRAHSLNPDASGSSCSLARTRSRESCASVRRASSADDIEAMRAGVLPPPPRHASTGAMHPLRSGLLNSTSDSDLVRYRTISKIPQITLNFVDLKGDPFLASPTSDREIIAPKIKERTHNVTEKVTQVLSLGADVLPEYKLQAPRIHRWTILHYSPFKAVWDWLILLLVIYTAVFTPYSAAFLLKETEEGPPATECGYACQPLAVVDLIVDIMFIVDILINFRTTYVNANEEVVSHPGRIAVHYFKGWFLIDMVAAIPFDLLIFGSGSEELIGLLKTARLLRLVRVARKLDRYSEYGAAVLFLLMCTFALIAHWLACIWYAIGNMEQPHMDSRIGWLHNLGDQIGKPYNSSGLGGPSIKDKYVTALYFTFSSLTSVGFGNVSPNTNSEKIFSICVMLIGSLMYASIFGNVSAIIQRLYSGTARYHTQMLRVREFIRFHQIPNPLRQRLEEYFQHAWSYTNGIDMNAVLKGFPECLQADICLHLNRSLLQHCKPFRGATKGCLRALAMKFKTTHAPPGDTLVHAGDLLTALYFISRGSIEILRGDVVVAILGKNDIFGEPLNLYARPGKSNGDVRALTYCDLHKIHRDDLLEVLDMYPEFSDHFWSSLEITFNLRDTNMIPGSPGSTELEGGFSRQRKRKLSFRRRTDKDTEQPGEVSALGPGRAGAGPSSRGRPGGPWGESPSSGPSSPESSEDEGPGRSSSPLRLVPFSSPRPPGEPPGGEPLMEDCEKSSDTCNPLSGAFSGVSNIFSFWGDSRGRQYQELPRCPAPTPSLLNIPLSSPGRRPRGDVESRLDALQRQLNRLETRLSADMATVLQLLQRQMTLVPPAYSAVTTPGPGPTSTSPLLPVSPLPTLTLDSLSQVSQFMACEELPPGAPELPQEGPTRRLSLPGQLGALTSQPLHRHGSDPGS", "conditions": "Ricerca receptor/enzyme binding panel plus CYP450; Potassium Channel hERG; at 10 µM; stronger effect = higher value"}, "[9]": {"target": "Cytochrome P450 2D6 (Homo sapiens) (UniProt P10635)", "sequence (P10635 whole entry, looked up)": "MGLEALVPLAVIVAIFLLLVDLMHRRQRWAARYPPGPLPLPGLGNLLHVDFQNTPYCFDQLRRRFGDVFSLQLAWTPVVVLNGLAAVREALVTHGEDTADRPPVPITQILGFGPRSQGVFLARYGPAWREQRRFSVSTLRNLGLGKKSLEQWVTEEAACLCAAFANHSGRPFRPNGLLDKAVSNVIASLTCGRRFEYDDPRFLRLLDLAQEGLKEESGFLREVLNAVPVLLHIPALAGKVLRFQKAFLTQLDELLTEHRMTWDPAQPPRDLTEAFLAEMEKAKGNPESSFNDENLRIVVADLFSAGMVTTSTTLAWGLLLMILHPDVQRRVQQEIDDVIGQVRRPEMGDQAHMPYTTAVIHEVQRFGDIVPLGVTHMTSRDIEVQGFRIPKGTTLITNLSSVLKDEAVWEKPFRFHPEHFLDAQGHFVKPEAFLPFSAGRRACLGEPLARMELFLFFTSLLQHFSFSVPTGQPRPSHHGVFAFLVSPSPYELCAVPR", "conditions": "Ricerca receptor/enzyme binding panel plus CYP450; CYP450 2D6; at 10 µM; stronger effect = higher value"}, "Cannabinoid CB1": {"system": "Cannabinoid CB1", "conditions": "Ricerca receptor/enzyme binding panel plus CYP450, at 10 µM, stronger effect = higher value"}, "Prostanoid EP4": {"system": "Prostanoid EP4", "conditions": "Ricerca receptor/enzyme binding panel plus CYP450, at 10 µM, stronger effect = higher value"}, "[10]": {"target": "D(1A) dopamine receptor (Homo sapiens) (UniProt P21728)", "sequence (P21728 whole entry, looked up)": "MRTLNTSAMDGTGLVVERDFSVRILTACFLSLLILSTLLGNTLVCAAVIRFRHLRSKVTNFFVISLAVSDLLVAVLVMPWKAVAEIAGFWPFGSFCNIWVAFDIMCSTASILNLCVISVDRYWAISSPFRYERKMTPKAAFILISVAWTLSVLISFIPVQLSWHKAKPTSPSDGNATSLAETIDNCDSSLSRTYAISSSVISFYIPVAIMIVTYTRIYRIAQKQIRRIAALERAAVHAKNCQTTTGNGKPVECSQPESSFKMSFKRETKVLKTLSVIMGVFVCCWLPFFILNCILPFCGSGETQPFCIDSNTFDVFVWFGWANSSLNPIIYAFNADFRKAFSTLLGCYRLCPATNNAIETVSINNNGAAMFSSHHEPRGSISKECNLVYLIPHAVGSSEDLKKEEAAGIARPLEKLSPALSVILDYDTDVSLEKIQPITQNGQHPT", "conditions": "Ricerca receptor/enzyme binding panel plus CYP450; Dopamine D1; at 10 µM; stronger effect = higher value"}, "Histamine H1": {"system": "Histamine H1", "conditions": "Ricerca receptor/enzyme binding panel plus CYP450, at 10 µM, stronger effect = higher value"}, "GABAA Central": {"system": "GABAA Central", "conditions": "at 10 µM, stronger effect = higher value"}, "Adrenergic beta1": {"system": "Adrenergic beta1", "conditions": "Ricerca receptor/enzyme binding panel plus CYP450, at 10 µM, stronger effect = higher value"}, "[11]": {"target": "5-hydroxytryptamine receptor 2B (Homo sapiens) (UniProt P41595)", "sequence (P41595 whole entry, looked up)": "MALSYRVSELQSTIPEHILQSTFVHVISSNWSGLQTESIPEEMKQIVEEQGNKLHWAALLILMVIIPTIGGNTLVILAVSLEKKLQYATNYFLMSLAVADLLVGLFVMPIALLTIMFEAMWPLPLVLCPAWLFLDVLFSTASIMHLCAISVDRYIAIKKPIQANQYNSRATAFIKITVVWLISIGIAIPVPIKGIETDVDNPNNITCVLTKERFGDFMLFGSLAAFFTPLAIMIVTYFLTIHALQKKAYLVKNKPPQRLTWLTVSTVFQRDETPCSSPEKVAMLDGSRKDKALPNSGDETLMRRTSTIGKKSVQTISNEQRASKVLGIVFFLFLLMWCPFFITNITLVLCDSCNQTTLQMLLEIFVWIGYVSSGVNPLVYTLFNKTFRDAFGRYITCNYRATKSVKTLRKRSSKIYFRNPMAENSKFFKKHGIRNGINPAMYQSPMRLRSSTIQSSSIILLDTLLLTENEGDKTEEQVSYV", "conditions": "Ricerca receptor/enzyme binding panel plus CYP450; Serotonin (5-Hydroxytryptamine) 5-HT2B; at 10 µM; stronger effect = higher value"}, "[12]": {"system": "Alpha-2A adrenergic receptor (Homo sapiens) + Histamine H1 receptor (Homo sapiens) + Mu-type opioid receptor (Homo sapiens)", "conditions": "Ricerca receptor/enzyme binding panel plus CYP450; at 10 µM; stronger effect = higher value"}, "Calcium Channel L-Type": {"system": "Calcium Channel L-Type", "conditions": "Ricerca receptor/enzyme binding panel plus CYP450, Dihydropyridine site, at 10 µM, stronger effect = higher value"}, "Adenosine A1": {"system": "Adenosine A1", "conditions": "Ricerca receptor/enzyme binding panel plus CYP450, at 10 µM, stronger effect = higher value"}, "Sigma 1": {"system": "Sigma 1", "conditions": "Ricerca receptor/enzyme binding panel plus CYP450, at 10 µM, stronger effect = higher value"}, "Sodium Channel": {"system": "Sodium Channel", "conditions": "Ricerca receptor/enzyme binding panel plus CYP450, site 2, at 10 µM, stronger effect = higher value"}, "[13]": {"target": "Cytochrome P450 3A4 (Homo sapiens) (UniProt P08684)", "conditions": "Ricerca receptor/enzyme binding panel plus CYP450; CYP450 3A4; at 10 µM; stronger effect = higher value"}}, "note": "Activity calls are given as the source filed them. No rule for the calls is given here.", "data": [{"smiles": "CCc1cccc(CC)c1NC(=O)c1ccc(-c2cc(Cl)ccc2Cl)o1", "values": [{"measurement": "inhibition", "setting": "[1]", "result": "27% (inactive)"}, {"measurement": "inhibition", "setting": "[2]", "result": "-3% (inactive)"}, {"measurement": "inhibition", "setting": "[3]", "result": "18% (inactive)"}, {"measurement": "inhibition", "setting": "Dopamine D2S", "result": "13% (inactive)"}, {"measurement": "inhibition", "setting": "Adrenergic alpha1A", "result": "-3% (inactive)"}, {"measurement": "inhibition", "setting": "CYP450 2C19", "result": "37% (inactive)"}, {"measurement": "inhibition", "setting": "[4]", "result": "17% (inactive)"}, {"measurement": "inhibition", "setting": "Nicotinic Acetylcholine", "result": "-12% (inactive)"}, {"measurement": "inhibition", "setting": "Adenosine A2A", "result": "-6% (inactive)"}, {"measurement": "inhibition", "setting": "Opiate mu (OP3, MOP)", "result": "8% (inactive)"}, {"measurement": "inhibition", "setting": "[5]", "result": 51, "unit": "%"}, {"measurement": "inhibition", "setting": "[6]", "result": "11% (inactive)"}, {"measurement": "inhibition", "setting": "Adrenergic alpha1B", "result": "-6% (inactive)"}, {"measurement": "inhibition", "setting": "[7]", "result": "2% (inactive)"}, {"measurement": "inhibition", "setting": "Glutamate NMDA", "result": "1% (inactive)"}, {"measurement": "inhibition", "setting": "[8]", "result": "10% (inactive)"}, {"measurement": "inhibition", "setting": "[9]", "result": "1% (inactive)"}, {"measurement": "inhibition", "setting": "Cannabinoid CB1", "result": "15% (inactive)"}, {"measurement": "inhibition", "setting": "Prostanoid EP4", "result": "27% (inactive)"}, {"measurement": "inhibition", "setting": "[10]", "result": "5% (inactive)"}, {"measurement": "inhibition", "setting": "Histamine H1", "result": "30% (inactive)"}, {"measurement": "inhibition", "setting": "GABAA Central; Ricerca receptor/enzyme binding panel plus CYP450, Flunitrazepam site", "result": "7% (inactive)"}, {"measurement": "inhibition", "setting": "GABAA Central; Ricerca receptor/enzyme binding panel plus CYP450, Muscimol site", "result": "8% (inactive)"}, {"measurement": "inhibition", "setting": "Adrenergic beta1", "result": "0% (inactive)"}, {"measurement": "inhibition", "setting": "[11]", "result": "40% (inactive)"}, {"measurement": "inhibition", "setting": "[12]", "result": "-4% (inactive)"}, {"measurement": "inhibition", "setting": "Calcium Channel L-Type", "result": "12% (inactive)"}, {"measurement": "inhibition", "setting": "Adenosine A1", "result": "0% (inactive)"}, {"measurement": "inhibition", "setting": "Sigma 1", "result": "-7% (inactive)"}, {"measurement": "inhibition", "setting": "Sodium Channel", "result": "43% (inactive)"}, {"measurement": "inhibition", "setting": "[13]", "result": "22% (inactive)"}]}]}
